According to publication PMC5564531, “Evaluation of radiofluorinated carboximidamides as potential IDO-targeted PET tracers for cancer imaging” (Oncotarget, 2017):

What was measured:
[1] = tested on: Hela, PANC02, HCT116, and 4T1 cells; test: HeLa cell uptake of radioligands; type: cell-based
Procedure: HeLa cells were seeded in a 24 well culture plate at a density of 2 × 10^4 per well in 400 μL culture media w/ FBS (n=3). After overnight incubation (16 h), human IFN-γ (25ng/well, 50 ng/mL final concentration) in 100 μL DMEM with FBS were added into cells. The cells were rinsed with phosphate-buffered saline (PBS), 500 μL of Earle's Minimum Essential Medium (EMEM) (ATCC 30-2003), and 10 % fetal bovine serum was added to the culture wells. […] At each given time point, the cell supernatants were discarded and cells were washed 3 times with PBS (0.5 mL).

[2] = target: T1, IDO1 in IFN-γ stimulated HeLa cells (Homo sapiens, UniProt P14902); test: IDO HeLa cells assay (IFN-γ induced IDO activity, kynurenine in supernatant); type: cell-based; conditions: IFN-γ 50 ng/mL, 48 h incubation, read-out: Inhibition of IFN-γ induced IDO activity in HeLa cells (IC50)
T1 construct: native IDO1 in HeLa cells; endogenous in cells; host or cells: HeLa cells stimulated with human IFN-γ
Procedure: (§1) The percent inhibition at individual concentrations was determined and the average values of duplicates were obtained. The data was processed using nonlinear regression to generate IC50 values (Prism Graphpad).

Human IDO = target: T2, Human IDO (Homo sapiens, UniProt P14902); test: IDO enzyme inhibition assay (kynurenine formation, absorbance 492 nm); type: biochemical; conditions: recombinant human IDO; mean of n ≥ 3, ± SD
T2 construct: purchased Enzo Life Sciences (enzolifesciences.com) ALX-201-333-C050
Procedure: as §1

IDO1 [3] = tested on: IDO1; parameters: method as in PMID 20197554, PMID 20124451; conditions: Phase I dose-escalation trial, generally well-tolerated doses; cited from earlier work
IDO1 [4] = tested on: IDO1; parameters: method as in PMID 19507862; conditions: in both biochemical and cellular assays; cited from earlier work
[5] = rapid clearance rate; species and reference not given; cited from earlier work
[6] = Lipophilicity, shake-flask method (n-octanol/PBS pH 7.4); type: physicochemical; conditions: n-octanol/buffer pH 7.4, n=3
Procedure: [^18F]IDO49 (2-30 kBq in 30μL of water) was added to a two-layer system of n-octanol (500 μL) and 0.1 M phosphate buffered saline (PBS) pH 7.4 (500 μL) in an Eppendorf vial. The vessel was vortexed for 3min and then centrifuged at 10,000 rpm for 2 min. An aliquot of each layer (100 μL) was assessed for radioactivity in a wipe counter. The partition coefficient (logD7.4) was calculated as the decimal logarithm of the ratio between the counted radioactivity in the n-octanol layer and the counted radioactivity in the aqueous layer (count of n-octanol sample – count of background) / (count of PBS sample – count of background). CLogP (calculated LogP) values were determined using CHEMBIODRAW ULTRA 12.0 software (Cambridge soft. Perkin-Elmer, Waltham, MA, USA).

[7] = In vitro stability in mouse serum by radio-TLC; type: in vitro ADME; conditions: 37°C, 3 h
Procedure: Two-hundred microliter samples were collected at 3 h and analyzed by radio-TLC.

IDO1 in Hela cells = IDO1 in Hela cells (Homo sapiens, UniProt P14902); test: Competitive cell-binding assay of [18F]IDO49 on IFN-γ treated HeLa cells; conditions: inhibitors 1-10000 nM, 30 min incubation
Hela tumor xenografts = test: MicroPET imaging of HeLa tumor xenografts with rHu IFN-γ treatment; type: in vivo, mouse; conditions: 60 min postinjection, IFN-γ treated HeLa tumor bearing mice, p < 0.05
Procedure: Female athymic C57BL/6 nude mice (4-6 weeks old) were ordered from Charles River Laboratories (Stone Ridge, NY, U.S.A.) and housed in a temperature and humidity controlled room. After 7 to 14 days of acclimatization, a total of 5 ×10^6 Hela cells were inoculated subcutaneously in 200 μL serum-free medium into the right flank of hind leg. Once tumors reached an appropriate size (3-4 mm in diameter) the mice were randomized into 5 groups (4/group). Then the mice in each group were randomized into two subgroups (rHu IFN- γ treatment or no rHu IFN- γ treatment). All the rHu IFN- γ treatment mice were injected i.p. of 1.5×10^5 U rHu IFN- γ /mouse/day. Group one mice were anesthetized by gas inhalation (2% vol/vol isoflurane in oxygen) 24 h later. Then the mice were euthanized and tumor tissues were dissected for further IDO1 western blotting and IHC. The same operation was repeated at 48h, 72h, 96h and 120h points.
In order to evaluate the in vivo imaging performance of [^18F]IDO49 to IDO1 tumors, microPET imaging was performed on nude mice bearing Hela tumor xenografts with and without rHu IFN- γ treatment treatment using the Inveon small-animal PET/CT scanner (Siemens). Anesthesia was induced with 4− 5% isoflurane and maintained with 1− 3% isofluorane delivered with a mixed air/oxygen through a closed nose cone throughout the PET imaging session. […]

T2 sequence (P14902 whole entry): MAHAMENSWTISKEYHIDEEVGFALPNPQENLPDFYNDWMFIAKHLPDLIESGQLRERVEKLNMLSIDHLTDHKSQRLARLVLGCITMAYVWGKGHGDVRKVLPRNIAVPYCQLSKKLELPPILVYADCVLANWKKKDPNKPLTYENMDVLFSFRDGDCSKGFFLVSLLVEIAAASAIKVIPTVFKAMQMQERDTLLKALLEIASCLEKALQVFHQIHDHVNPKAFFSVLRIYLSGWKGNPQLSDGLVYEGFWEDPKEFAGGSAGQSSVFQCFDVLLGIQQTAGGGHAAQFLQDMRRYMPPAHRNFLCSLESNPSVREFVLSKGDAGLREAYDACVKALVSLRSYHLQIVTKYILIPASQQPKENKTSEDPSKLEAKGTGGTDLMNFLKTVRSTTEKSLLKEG
Sequence of IDO1 in Hela cells (P14902 whole entry): as above
T1 sequence (P14902 whole entry): as above

Cn1cc(C[C@H](N)C(=O)O)c2ccccc21 [1-L-MT, reference compound]
effect on uptake of [18F]IDO5L by HeLa at 120 min ([1]; 1000 μM 1-L-MT, n=4): strong inhibition

ON=C(Nc1ccc(F)c(Cl)c1)c1nonc1NCCF [IDO49, N-(3-chloro-4-fluorophenyl)-4-((2-fluoroethyl)amino)-N'-hydroxy-1,2,5-oxadiazole-3-carboximidamide]
IC50 [2]: 11.9 nM | IC50 (Human IDO): 95.5 ± 10.4 nM

NS(=O)(=O)NCCNc1nonc1C(=NO)Nc1ccc(F)c(Br)c1 [INCB024360]
inhibition of IDO1 activity (IDO1 [3]): greater than 90% | IC50 (IDO1 [4]): […] | t1/2 (clearance rate) [5]: < 30 min

Nc1nonc1/C(=N/O)Nc1ccc([18F])c(Cl)c1 [[^18F]IDO5L]
time of peak cellular uptake ([1]; Hela, PANC02, HCT116 and 4T1 cells, assayed at 30, 60, 120 mins, n=3): 60 min | logD7.4 [6]: 2.13 ± 0.11 | radioactivity in the intact radioligand [7]: > 95%

ON=C(Nc1ccc(F)c(Cl)c1)c1nonc1NCC[18F] [[^18F]IDO49]
[18F]IDO49 uptake in Hela cells when co-incubated with NLG919 and INCB024360 (IDO1 in Hela cells): decreased in a dose-dependent manner | logD ([6]; n-octanol/PBS, read-out: logD7.4): 1.37 ± 0.02 | tumor to muscle (T/M) uptake ratio, peak (Hela tumor xenografts): 2.29 ± 0.05 | radioactivity in the intact radioligand [7]: > 95%
